From the NIST ThermoML archive (doi:10.1021/je800520w)
Numbers after ± are expanded uncertainties.

Experiments:
[1] = 293.15 K; 101.33 kPa; Liquid; Pycnometric method
[2] = refractive index (Na D-line) (dimensionless); conditions: 293.15 K; 101.33 kPa; Liquid; Standard Abbe refractometry

## CO [methanol]
[1]
  mass density: 791.7 ± 0.5 kg/m3
[2]
  refractive index: 1.3291 ± 0.0005

## CCCCCCO [hexan-1-ol]
[1]
  mass density: 813.8 ± 0.5 kg/m3
[2]
  refractive index: 1.4175 ± 0.0005

## CC(C)O [propan-2-ol]
[1]
  mass density: 784.9 ± 0.5 kg/m3
[2]
  refractive index: 1.378 ± 0.0005

## CCCO [propan-1-ol]
[1]
  mass density: 803.8 ± 0.5 kg/m3
[2]
  refractive index: 1.3853 ± 0.0005

## CCCCO [butan-1-ol]
[1]
  mass density: 810.3 ± 0.5 kg/m3
[2]
  refractive index: 1.3997 ± 0.0005

## CCC(C)O (centres undefined) [butan-2-ol]
[1]
  mass density: 802.6 ± 0.5 kg/m3
[2]
  refractive index: 1.3955 ± 0.0005

## CCCCCO [pentan-1-ol]
[1]
  mass density: 812.9 ± 0.5 kg/m3
[2]
  refractive index: 1.4092 ± 0.0005
